The text below walks through data of ChEMBL document CHEMBL5236635, “Structure-Based Drug Design and Synthesis of Novel N-Aryl-2,4-bithiazole-2-amine CYP1B1-Selective Inhibitors in Overcoming Taxol Resistance in A549 Cells” (J Med Chem, 2022).

Assay [1] relates to A549. Description: Inhibition of DMBA-induced AKT overexpression in human taxol resistance A549 cells incubated for 24 hrs. It is filed as functional, cell-based. The note with it: dose 5.0 µM.
Assay [2] concerns A549. Description: Inhibition of DMBA-induced cell migration in human A549 cells incubated for 48 hrs by inverted microscopic analysis. The note with it: dose 5.0 µM. It is filed as functional, cell-based.
In assay [3] the test system is NCI-H460. Description: Inhibition of DMBA-induced CYP1B1 overexpression in human NCI-H460 cells assessed as decrease in E-cadherin level incubated for 24 hrs by densitometry analysis. The class given is functional, cell-based. The note with it: dose 5.0 µM.
Assay [4] has as its system A549. Description: Inhibition of DMBA-induced CYP1B1 overexpression in human A549 cells assessed as increase in SRC level at 5 uM incubated for 24 hrs by densitometry analysis. The class given is functional, cell-based.
Another assay deals with A549/Taxol. Description: Inhibition of AKT pathway in human A549/Taxol cells assessed as decrease in phosphorylated AKT level at 5 uM incubated for 24 hrs. The class given is cell-based.
Assay [5] concerns A549. Description: Antiproliferative activity against human taxol resistance human A549 cells assessed as reduction in cell viability incubated for 24 hrs by MTT assay. The class given is functional, cell-based. The note with it: dose 5.0 µM.
The subject of assay [6] is A549. The assay is described as follows: Inhibition of DMBA-induced CYP1B1 overexpression in human A549 cells assessed as supression of FAK pathway at 5 uM incubated for 24 hrs by densitometry analysis. The class given is functional, cell-based.
Assay [7] relates to NCI-H460. Description: Antiproliferative activity against human taxol resistance human NCI-H460 cells assessed as reduction in cell viability incubated for 24 hrs by MTT assay. The class given is functional, cell-based. Particulars: dose 5.0 µM. A general note: Tetrazolium dyes change colour on reduction, which living cells bring about.
Assay [8] deals with A549/TR. The assay is described as follows: Reversal of taxol resistance in human A549/Taxol cells assessed as increase in Rho123 accumulation at 5 uM incubated for 20 mins by multimode plate reader analysis. It is filed as functional, cell-based.
Assay [9] deals with NCI-H460. Description: Inhibition of DMBA-induced CYP1B1 overexpression in human NCI-H460 cells assessed as effect on Snail level at 5 uM incubated for 24 hrs by densitometry analysis. The class given is functional, cell-based.
In assay [10] the test system is A549. The assay is described as follows: Inhibition of DMBA-induced CYP1B1 overexpression in human A549 cells assessed as effect on Snail level at 5 uM incubated for 24 hrs by densitometry analysis. It is filed as functional, cell-based.
Assay [11] concerns A549. Description: Inhibition of DMBA-induced CYP1B1 overexpression in human A549 cells assessed as decrease in E-cadherin level incubated for 24 hrs by densitometry analysis. It is filed as functional, cell-based. Particulars: dose 5.0 µM.
The subject of assay [12] is A549. Description: Inhibition of DMBA-induced CYP1B1 overexpression in human A549 cells assessed as decrease in Vimentin level at 5 uM incubated for 24 hrs by densitometry analysis. The class given is functional, cell-based.
Assay [13] relates to A549/TR. Description: Synergistic antiproliferative activity against human A549/Taxol cells assessed as increase in taxol by measuring combination index at 30 uM incubated for 72 hrs in presence of 0.06 uM taxol by MTT assay. It is filed as functional.
Assay [14] relates to A549/TR. The assay is described as follows: Synergistic antiproliferative activity against human A549/Taxol cells assessed as increase in taxol by measuring combination index at 3.75 uM incubated for 72 hrs in presence of 0.06 uM taxol by MTT assay. The class given is functional.
Assay [15] deals with A549/TR. Description: Synergistic antiproliferative activity against human A549/Taxol cells assessed as increase in taxol by measuring combination index at 7.50 uM incubated for 72 hrs in presence of 0.25 uM taxol by MTT assay. It is filed as functional. The note with it: dose 7.5 µM.
Assay [16] concerns A549/TR. The assay is described as follows: Synergistic antiproliferative activity against human A549/Taxol cells assessed as increase in taxol by measuring combination index at 3.75 uM incubated for 72 hrs in presence of 0.13 uM taxol by MTT assay. The class given is functional.
The subject of assay [17] is A549/TR. Description: Synergistic antiproliferative activity against human A549/Taxol cells assessed as increase in taxol by measuring combination index at 15 uM incubated for 72 hrs in presence of 0.25 uM taxol by MTT assay. The class given is functional.
In assay [18] the test system is A549/TR. The assay is described as follows: Inhibition of cell invasion in human A549/Taxol cells at 2.5 to 10 uM incubated for 18 hrs by optical microscopic analysis. It is filed as functional, cell-based. The note with it: dose 2.5-10 µM.
Assay [19] relates to A549/TR. Description: Synergistic antiproliferative activity against human A549/Taxol cells assessed as increase in taxol by measuring combination index at 3.75 uM incubated for 72 hrs in presence of 1 uM taxol by MTT assay. It is filed as functional.
Assay [20] deals with A549/TR. Description: Synergistic antiproliferative activity against human A549/Taxol cells assessed as increase in taxol by measuring combination index at 7.50 uM incubated for 72 hrs in presence of 0.06 uM taxol by MTT assay. It is filed as functional. Particulars: dose 7.5 µM.
Assay [21] deals with A549/TR. Description: Synergistic antiproliferative activity against human A549/Taxol cells assessed as increase in taxol by measuring combination index at 15 uM incubated for 72 hrs in presence of 0.50 uM taxol by MTT assay. The class given is functional.
For assay [22], the system named is A549/TR. Description: Synergistic antiproliferative activity against human A549/Taxol cells assessed as increase in taxol by measuring combination index at 30 uM incubated for 72 hrs in presence of 1 uM taxol by MTT assay. It is filed as functional.
Assay [23] concerns A549/TR. The assay is described as follows: Reversal of taxol resistance human A549/Taxol cells assessed as increase in sensitivity at 5 uM incubated for 72 hrs by MTT assay. It is filed as functional, cell-based.
The target in the next assay is T1, Cytochrome P450 1B1 (Homo sapiens, UniProt Q16678).
T1 sequence (Q16678 whole entry): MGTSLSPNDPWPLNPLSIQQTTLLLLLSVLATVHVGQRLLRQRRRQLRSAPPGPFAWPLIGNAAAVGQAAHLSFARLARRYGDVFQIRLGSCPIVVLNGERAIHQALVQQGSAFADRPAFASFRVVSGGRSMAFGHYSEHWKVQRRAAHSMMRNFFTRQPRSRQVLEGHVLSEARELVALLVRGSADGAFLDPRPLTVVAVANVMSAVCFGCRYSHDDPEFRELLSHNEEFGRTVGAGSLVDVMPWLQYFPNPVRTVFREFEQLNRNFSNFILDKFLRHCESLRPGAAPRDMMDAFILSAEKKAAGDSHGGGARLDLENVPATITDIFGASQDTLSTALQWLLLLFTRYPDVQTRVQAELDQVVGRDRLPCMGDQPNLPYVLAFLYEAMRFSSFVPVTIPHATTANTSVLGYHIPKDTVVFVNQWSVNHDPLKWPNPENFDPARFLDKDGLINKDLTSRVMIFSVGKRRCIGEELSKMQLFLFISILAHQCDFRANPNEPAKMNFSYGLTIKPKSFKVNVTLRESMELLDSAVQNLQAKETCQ
The assay is described as follows: Inhibition of recombinant human CYP1B1 using 7-ethyl-0-resorufin as substrate incubated for 30 mins in presence of NADPH by EROD assay.

In assay [24] the test system is A549/TR. The assay is described as follows: Synergistic antiproliferative activity against human A549/Taxol cells assessed as increase in taxol by measuring combination index at 3.75 uM incubated for 72 hrs in presence of 0.25 uM taxol by MTT assay. The class given is functional.
Assay [25] has as its system A549/TR. The assay is described as follows: Inhibition of cell migration in human A549/Taxol cells incubated for 36 hrs. It is filed as functional, cell-based. Particulars: dose 2.5-10 µM.
Assay [26] has as its system A549/TR. The assay is described as follows: Synergistic antiproliferative activity against human A549/Taxol cells assessed as increase in taxol by measuring combination index at 7.50 uM incubated for 72 hrs in presence of 1 uM taxol by MTT assay. The class given is functional. Particulars: dose 7.5 µM.
Assay [27] has as its target Focal adhesion kinase 1 (Homo sapiens) (UniProt Q05397). Description: Inhibition of FAK pathway in human A549/Taxol cells assessed as decrease in phosphorylated FAK level at 2.5 to 5 uM incubated for 24 hrs. The class given is cell-based. Particulars: dose 2.5-5 µM.
The test system of assay [28] is A549/TR. The assay is described as follows: Synergistic antiproliferative activity against human A549/Taxol cells assessed as increase in taxol by measuring combination index at 30 uM incubated for 72 hrs in presence of 0.50 uM taxol by MTT assay. The class given is functional.

The pIC50 is the IC50 on a negative log10 scale, so that one unit is a factor of ten.

Each structure is given as a SMILES string. pIC50: −log10 of the molar value. Calls of active or inactive are those of the source. No cut-off for these calls is given here.

Sequence of Focal adhesion kinase 1 (Homo sapiens) (Q05397 2-1052 limits assumed): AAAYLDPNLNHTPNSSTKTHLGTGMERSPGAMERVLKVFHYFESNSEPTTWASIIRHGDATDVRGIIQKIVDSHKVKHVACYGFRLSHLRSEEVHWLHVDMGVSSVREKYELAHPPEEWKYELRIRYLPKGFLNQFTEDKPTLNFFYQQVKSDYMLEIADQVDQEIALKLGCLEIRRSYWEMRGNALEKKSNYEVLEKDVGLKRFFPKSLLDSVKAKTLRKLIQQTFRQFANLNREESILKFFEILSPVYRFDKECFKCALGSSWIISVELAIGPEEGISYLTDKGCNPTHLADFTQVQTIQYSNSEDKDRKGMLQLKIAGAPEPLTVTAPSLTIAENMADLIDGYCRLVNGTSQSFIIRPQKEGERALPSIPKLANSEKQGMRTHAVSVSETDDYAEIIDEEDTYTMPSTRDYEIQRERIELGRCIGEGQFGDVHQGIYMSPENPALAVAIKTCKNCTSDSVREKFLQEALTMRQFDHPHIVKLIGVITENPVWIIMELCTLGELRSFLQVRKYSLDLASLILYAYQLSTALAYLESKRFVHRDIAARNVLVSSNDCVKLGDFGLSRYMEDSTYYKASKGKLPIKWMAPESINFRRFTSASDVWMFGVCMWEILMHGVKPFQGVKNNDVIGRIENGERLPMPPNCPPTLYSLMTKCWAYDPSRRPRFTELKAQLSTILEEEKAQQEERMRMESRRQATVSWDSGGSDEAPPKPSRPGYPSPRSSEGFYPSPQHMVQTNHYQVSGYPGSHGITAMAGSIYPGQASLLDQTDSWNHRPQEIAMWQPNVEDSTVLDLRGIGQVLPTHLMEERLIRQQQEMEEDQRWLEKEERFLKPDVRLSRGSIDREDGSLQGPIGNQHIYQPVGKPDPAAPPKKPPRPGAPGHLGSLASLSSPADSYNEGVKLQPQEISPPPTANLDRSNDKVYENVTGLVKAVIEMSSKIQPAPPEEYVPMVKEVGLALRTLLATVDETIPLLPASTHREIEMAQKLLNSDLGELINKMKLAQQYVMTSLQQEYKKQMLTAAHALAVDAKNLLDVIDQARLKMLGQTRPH

Turning to `COc1cc(/C=C/c2ccc(OC)cc2OC)cc(OC)c1`, the inhibition result in the assay on A549 [1], in the assay on A549 [2], with NCI-H460 [3] and in the assay on A549 [11] was “Dose-Dependent Effect” throughout. For the same molecule, the inhibition result in the assay on A549 [4], with NCI-H460 [9], with A549 [10] and in the assay on A549 [12] was “inactive” in each case. Also, the inhibition entry in the assay on A549/Taxol and with A549 [6] was “Active” in each case. For the same molecule, the Activity result in the assay on A549 [5] and in the assay with NCI-H460 [7] was “Dose-Dependent Effect” throughout. The result with A549/TR [8] was Active.

Take `COc1cc(Nc2nc(-c3nc(-c4ccccc4F)cs3)cs2)cc(OC)c1`: the CI in the assay on A549/TR [13] is 0.09; in the assay with A549/TR [14], 0.64; in the assay on A549/TR [15] it was 0.47; in the assay on A549/TR [16] it was 0.55; in the assay on A549/TR [17], 0.3; with A549/TR [19] it was 1.89. The CI with A549/TR [20] came out at 0.68; in the assay with A549/TR [21], 0.4; in the assay with A549/TR [22], 0.02; with A549/TR [24], 0.55; in the assay on A549/TR [26] it was 1.36; with A549/TR [28], 0.2. The inhibition entry in the assay on A549/TR [18] and in the assay on A549/TR [25] was “Dose-Dependent Effect” each time. The result in the assay with A549/TR [23] was Active. Besides, the pIC50 at Cytochrome P450 1B1 is 8.18. Also, the inhibition entry in assay [27] was “Active”.
